Source: ChEMBL document CHEMBL4428067, “Drug Discovery against Psoriasis: Identification of a New Potent FMS-like Tyrosine Kinase 3 (FLT3) Inhibitor, 1-(4-((1H-Pyrazolo[3,4-d]pyrimidin-4-yl)oxy)-3-fluorophenyl)-3-(5-(tert-butyl)isoxazol-3-yl)urea, That Showed Potent Activity in a Psoriatic Animal Model” (J Med Chem, 2016)
pIC50: −log10 of the molar value.

Biological target: T1, Receptor-type tyrosine-protein kinase FLT3 (Homo sapiens, UniProt P36888)
T1 sequence (P36888 whole entry): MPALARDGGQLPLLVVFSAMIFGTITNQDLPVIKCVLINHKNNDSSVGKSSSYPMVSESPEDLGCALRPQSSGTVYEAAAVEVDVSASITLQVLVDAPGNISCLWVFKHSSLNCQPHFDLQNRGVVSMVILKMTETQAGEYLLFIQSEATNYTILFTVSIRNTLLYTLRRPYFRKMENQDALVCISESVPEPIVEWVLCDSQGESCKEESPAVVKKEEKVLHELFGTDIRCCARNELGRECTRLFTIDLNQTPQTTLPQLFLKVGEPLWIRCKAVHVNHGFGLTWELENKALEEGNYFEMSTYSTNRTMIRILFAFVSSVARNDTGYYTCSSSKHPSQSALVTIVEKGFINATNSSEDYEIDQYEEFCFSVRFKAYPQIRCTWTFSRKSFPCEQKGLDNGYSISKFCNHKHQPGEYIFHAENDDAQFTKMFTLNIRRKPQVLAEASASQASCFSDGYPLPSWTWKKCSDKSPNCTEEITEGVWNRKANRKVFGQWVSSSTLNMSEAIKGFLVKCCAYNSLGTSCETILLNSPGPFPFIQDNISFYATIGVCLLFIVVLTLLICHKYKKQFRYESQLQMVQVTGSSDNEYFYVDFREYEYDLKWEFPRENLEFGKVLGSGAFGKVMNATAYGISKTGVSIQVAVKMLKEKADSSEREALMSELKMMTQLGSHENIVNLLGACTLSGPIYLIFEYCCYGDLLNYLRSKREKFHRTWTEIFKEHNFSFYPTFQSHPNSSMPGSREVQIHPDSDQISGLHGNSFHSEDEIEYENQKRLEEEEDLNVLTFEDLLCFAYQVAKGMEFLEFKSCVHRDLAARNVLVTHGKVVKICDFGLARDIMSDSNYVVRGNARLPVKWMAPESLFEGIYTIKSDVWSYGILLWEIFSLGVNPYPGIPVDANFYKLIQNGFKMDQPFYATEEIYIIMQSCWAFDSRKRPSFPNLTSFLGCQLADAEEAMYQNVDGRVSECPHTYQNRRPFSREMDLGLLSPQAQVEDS
Experiment: Inhibition of recombinant human N-terminal GST-tagged FLT3 (564 to end residues) expressed by baculovirus in Sf21 insect cells measured after 10 mins in presence of [gamma-33P]ATP by scintillation counter method

SMILES | pIC50
Cn1ncc2c(Oc3ccc(NC(=O)Nc4cc(C(C)(C)C)on4)cc3)ncnc21 | 7.57
CC(C)(C)c1csc(NC(=O)Nc2ccc(Oc3ncnc4[nH]ncc34)cc2)n1 | 8.10
CC(C)(C)c1cc(NC(=O)Nc2ccc(Oc3ncnc4[nH]ncc34)c(F)c2)n(-c2ccc(F)cc2)n1 | 7.38
CC(C)n1ncc2c(Oc3ccc(NC(=O)Nc4cc(C(C)(C)C)on4)cc3)ncnc21 | 6.66
CN(C)CCCn1ncc2c(Oc3ccc(NC(=O)Nc4cc(C(C)(C)C)on4)cc3)ncnc21 | 7.10
CC(C)(C)c1cc(NC(=O)Nc2ccc(Oc3ncnc4[nH]ncc34)c(F)c2)n(-c2ccccc2)n1 | 7.25
CC(C)(C)c1cc(NC(=O)Nc2ccc(Oc3ncnc4[nH]ncc34)c(F)c2)n(C2CCCC2)n1 | 7.28
Cn1nc(C(C)(C)C)cc1NC(=O)Nc1ccc(Oc2ncnc3[nH]ncc23)c(F)c1 | 7.18
Cn1nc(C(F)(F)F)cc1NC(=O)Nc1ccc(Oc2ncnc3[nH]ncc23)cc1 | 7.42
CC(C)(C)c1cc(NC(=O)Nc2ccc(Oc3ncnc4[nH]ncc34)cc2)n(-c2ccccc2)n1 | 7.30
CC(C)c1cc(NC(=O)Nc2ccc(Oc3ncnc4[nH]ncc34)cc2)n(C)n1 | 7.09
CC(C)(C)c1cc(NC(=O)Nc2ccc(Oc3ncnc4c3cnn4CCN3CCOCC3)cc2)no1 | 6.35

Now from value to compound:

pIC50 | SMILES
7.44 | Cn1nc(C(F)(F)F)cc1NC(=O)Nc1ccc(Oc2ncnc3[nH]ncc23)c(F)c1
7.21 | Cn1nc(C(C)(C)C)cc1NC(=O)Nc1ccc(Oc2ncnc3[nH]ncc23)cc1
7.96 | CC(C)(C)c1cc(NC(=O)Nc2ccc(Oc3ncnc4[nH]ncc34)cc2)no1
7.14 | O=C(Nc1ccc(Oc2ncnc3[nH]ncc23)cc1)Nc1nc(-c2ccccc2)cs1
6.53 | O=C(Nc1ccc(Oc2ncnc3[nH]ncc23)cc1)Nc1nc2ccccc2s1
8.00 | CC(C)(C)c1cc(NC(=O)Nc2ccc(Oc3ncnc4[nH]ncc34)cc2)n(C(=O)O)n1
7.55 | O=C(Nc1ccc(Oc2ncnc3[nH]ncc23)cc1)Nc1cc(C(F)(F)F)on1
8.70 | CC(C)(C)c1cc(NC(=O)Nc2ccc(Oc3ncnc4[nH]ncc34)c(Cl)c2)no1
8.22 | CC(C)(C)c1cc(NC(=O)Nc2ccc(Oc3ncnc4[nH]ncc34)cc2F)no1
8.10 | CC(C)(C)c1cc(NC(=O)Nc2ccc(Oc3ncnc4[nH]ncc34)cc2)on1
7.28 | CC(C)(C)c1cc(NC(=O)Nc2ccc(Oc3ncnc4[nH]ncc34)cc2)n(C2CCCC2)n1
8.22 | Cc1cc(NC(=O)Nc2cc(C(C)(C)C)on2)ccc1Oc1ncnc2[nH]ncc12
6.18 | Cc1cc(Oc2ncnc3[nH]ncc23)ccc1NC(=O)Nc1cc(C(C)(C)C)on1
